Results as given in US20180280480A1, “COMPOSITIONS AND PEPTIDES HAVING DUAL GLP-1R AND GLP-2R AGONIST ACTIVITY” (priority 2014, published 2018).
Like-named read-outs stand apart in the source and are kept apart here. Values belong to the molecule of their own block, whether it stands above or below them. Ends that are not written are not given here.

Tests used:
C57BL/6J mice [1] = test system: C57BL/6J mice
C57BL/6J mice [2] = experiment: GLP1R-GLP2R dual agonist compound study: cumulative food intake; type: in vivo; settings: Day 0-7; 3.0 mg/kg BID SC; mean ± S.E.M.
From the text: (§1) Forty (40, n=10, 4 groups) male C57BL/6J mice obtained from Taconic, Denmark, were used. At the time of the experiment, the mice had reached an age of 9-10 weeks. The mice were acclimatized for one week in their new environment and offered regular chow diet (Altromin 1324, Brogaarden A/S, Denmark) and domestic quality tap water. Animals were housed two per cage during the study, in a light-, temperature-, and humidity-controlled room (12-hour light: 12-hour dark cycle, lights on/off at 4 AM/4 PM hour; 22±1° C.; 50±10% relative humidity). […] Animals were uniquely identified with implantable microchips (Pet ID Microchip, E-vet) in all mice upon arrival. Animals were identified using the WS-2 weight station (MBrose ApS, Faaborg, Denmark) connected to a laptop running the HM02Lab software (Ellegaard Systems, Faaborg, Denmark). The HM02Lab software matches the body weight with ID and calculates the dose directly based on the body weight. All mice were handled for 3 days prior to the experiment to acclimatize the animals to handling and injections.

C57BL/6J mice [3] = experiment: Gut proliferation in C57BL/6J mice, PoC study 2 (liraglutide and teduglutide); type: in vivo
From the text: as §1

C57BL/6J mice [4] = experiment: GLP1R-GLP2R dual agonist compound study: gut wet weight; type: in vivo; settings: Day 8; 3.0 mg/kg BID SC; mean ± S.E.M.
From the text: On study day 8, the mice were terminated and the GI tract was removed for determination of the gut wet weight. The gut wet weight results are listed below in Table 12.

GLP-2R = biological target: T1, GLP-2R (Homo sapiens, UniProt O95838); experiment: GLP2 receptor efficacy assay (in vitro functional screen, Euroscreen or DiscoveRx); settings: EC50 of native GLP-2 / EC50 of compound
T1 sequence (O95838 1-553): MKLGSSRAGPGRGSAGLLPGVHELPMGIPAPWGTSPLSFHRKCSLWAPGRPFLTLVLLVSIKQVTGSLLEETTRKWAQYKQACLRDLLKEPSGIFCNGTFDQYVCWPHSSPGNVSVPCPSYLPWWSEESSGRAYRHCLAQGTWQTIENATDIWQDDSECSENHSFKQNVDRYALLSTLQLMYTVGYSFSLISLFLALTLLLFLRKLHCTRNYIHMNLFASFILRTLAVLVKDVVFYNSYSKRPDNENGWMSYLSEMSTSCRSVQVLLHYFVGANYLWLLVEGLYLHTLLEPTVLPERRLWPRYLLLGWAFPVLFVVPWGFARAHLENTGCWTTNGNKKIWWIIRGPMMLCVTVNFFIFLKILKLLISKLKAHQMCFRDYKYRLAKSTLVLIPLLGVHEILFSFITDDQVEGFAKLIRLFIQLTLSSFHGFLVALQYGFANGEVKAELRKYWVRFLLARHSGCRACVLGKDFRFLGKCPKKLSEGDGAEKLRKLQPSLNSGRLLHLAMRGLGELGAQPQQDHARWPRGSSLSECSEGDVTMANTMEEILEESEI

C57BL/6J mice [5] = experiment: GLP1R-GLP2R dual agonist compound study: oral glucose tolerance test; type: in vivo; settings: Day 7; 3.0 mg/kg BID SC; glucose 2 g/kg oral; mean ± S.E.M.
Protocol: On day 7, an oral glucose tolerance test (OGTT) was performed. Animals were mildly fasted as all food was removed 4 hours prior to the oral glucose load. Vehicle (SC) and compounds were administered subcutaneously (SC) 2 hours prior to the OGTT. At t=0 mice received an oral glucose load (2 g/kg; 4 ml/kg; 500 mg/ml, Fresenius Kabi, Sweden). Glucose was given as gavage via a gastrically-placed tube connected to a syringe ensuring accurate dosing. Blood glucose was measured from tail vein blood before glucose (at t=−120 and 0 min, baseline) and after glucose administration at t=15, 30, 60 and 120 min. Blood samples (tail vein) was collected into 10 μl heparinized glass capillary tubes and immediately suspended in buffer (0.5 ml of glucose/lactate system solution (EKF-diagnostics, Germany) and analyzed for glucose on the test day using a BIOSEN c-Line glucose meter (EKF-diagnostics, Germany) according to manufacturer's instructions. Results from the OGTT are listed below in Table 11.

human GLP-1 receptor [6] = biological target: T2, human GLP-1 receptor (human, UniProt P43220 24-463, limits assumed); experiment: cell-based or functional assay
human GLP-2 receptor [7] = biological target: T3, human GLP-2 receptor (human, UniProt O95838 1-553, limits assumed); experiment: cell-based or functional assay
T3 sequence (looked up): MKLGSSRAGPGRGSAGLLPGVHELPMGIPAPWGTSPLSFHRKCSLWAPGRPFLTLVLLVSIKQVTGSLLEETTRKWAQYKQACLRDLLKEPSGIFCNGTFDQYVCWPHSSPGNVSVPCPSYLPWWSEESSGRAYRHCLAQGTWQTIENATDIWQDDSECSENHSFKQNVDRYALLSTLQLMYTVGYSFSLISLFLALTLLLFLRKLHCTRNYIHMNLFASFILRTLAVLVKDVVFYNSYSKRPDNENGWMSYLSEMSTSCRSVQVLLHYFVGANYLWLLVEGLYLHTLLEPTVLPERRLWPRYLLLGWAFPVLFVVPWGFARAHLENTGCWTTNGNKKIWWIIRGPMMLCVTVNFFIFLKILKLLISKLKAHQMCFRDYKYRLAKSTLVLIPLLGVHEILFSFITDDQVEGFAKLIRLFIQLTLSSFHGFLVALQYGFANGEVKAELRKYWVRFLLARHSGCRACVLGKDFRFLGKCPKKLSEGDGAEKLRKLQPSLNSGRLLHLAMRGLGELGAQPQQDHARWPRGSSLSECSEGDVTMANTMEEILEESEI

human GLP-1 receptor [8] = biological target: T2, human GLP-1 receptor; experiment: cell-based or functional assay; remark: listed apart in the source
human GLP-2 receptor [9] = biological target: T3, human GLP-2 receptor; experiment: cell-based or functional assay; remark: listed apart in the source
[10] = Day 8, BID SC, liraglutide 0.2 mg/kg, teduglutide 1.0 mg/kg, alone or combined, mean ± S.E.M.

Molecule: CC[C@H](C)[C@H](NC(=O)[C@H](Cc1ccccc1)NC(=O)[C@H](CC(=O)O)NC(=O)[C@H](CCCNC(=N)N)NC(=O)[C@H](C)NC(=O)[C@H](C)NC(=O)[C@H](CC(C)C)NC(=O)[C@H](CC(N)=O)NC(=O)[C@H](CC(=O)O)NC(=O)[C@H](CC(C)C)NC(=O)[C@@H](NC(=O)[C@@H](NC(=O)[C@H](CC(N)=O)NC(=O)[C@H](CCSC)NC(=O)[C@H](CCC(=O)O)NC(=O)[C@H](CC(=O)O)NC(=O)[C@H](CO)NC(=O)[C@H](Cc1ccccc1)NC(=O)[C@H](CO)NC(=O)CNC(=O)[C@H](CC(=O)O)NC(=O)[C@H](C)NC(=O)[C@@H](N)Cc1c[nH]cn1)[C@@H](C)O)[C@@H](C)CC)C(=O)N[C@@H](CC(N)=O)C(=O)N[C@@H](Cc1c[nH]c2ccccc12)C(=O)N[C@@H](CC(C)C)C(=O)N[C@H](C(=O)N[C@@H](CCC(N)=O)C(=O)N[C@H](C(=O)N[C@@H](CCCCN)C(=O)N[C@H](C(=O)N[C@H](C(=O)N[C@@H](CC(=O)O)C(=O)O)[C@@H](C)O)[C@@H](C)CC)[C@@H](C)O)[C@@H](C)CC [GLP-2]
Total intestine weight (C57BL/6J mice [1]; Day 8, 3 mg/kg BID SC, female C57BL/6J mice, mean ± S.E.M.): 1256 ± 30.1 mg | increase in intestinal weight compared to vehicle (C57BL/6J mice [1]; seven days of dosing, 3.0 mg/kg each BID SC): approx. 25%

relative GLP-2 activity (GLP-2R): 1.0
Molecule: CC[C@H](C)[C@H](NC(=O)[C@H](Cc1ccccc1)NC(=O)[C@H](CC(=O)O)NC(=O)[C@H](CCCNC(=N)N)NC(=O)[C@H](C)NC(=O)[C@H](C)NC(=O)[C@H](CC(C)C)NC(=O)[C@H](CC(N)=O)NC(=O)[C@H](CC(=O)O)NC(=O)[C@H](CC(C)C)NC(=O)[C@@H](NC(=O)[C@@H](NC(=O)[C@H](CC(N)=O)NC(=O)[C@H](CCSC)NC(=O)[C@H](CCC(=O)O)NC(=O)[C@H](CC(=O)O)NC(=O)[C@H](CO)NC(=O)[C@H](Cc1ccccc1)NC(=O)[C@H](CO)NC(=O)CNC(=O)[C@H](CC(=O)O)NC(=O)CNC(=O)[C@@H](N)Cc1c[nH]cn1)[C@@H](C)O)[C@@H](C)CC)C(=O)N[C@@H](CC(N)=O)C(=O)N[C@@H](Cc1c[nH]c2ccccc12)C(=O)N[C@@H](CC(C)C)C(=O)N[C@H](C(=O)N[C@@H](CCC(N)=O)C(=O)N[C@H](C(=O)N[C@@H](CCCCN)C(=O)N[C@H](C(=O)N[C@H](C(=O)N[C@@H](CC(=O)O)C(=O)O)[C@@H](C)O)[C@@H](C)CC)[C@@H](C)O)[C@@H](C)CC [Teduglutide]
Cumulative food intake (C57BL/6J mice [2]): 31.82 ± 6.52 g | Gut wet weight (C57BL/6J mice [3]; [10]): 2.6 ± 0.2 ^### g | Large intestine length (C57BL/6J mice [3]; [10]): 5.1 ± 0.6 cm | Large intestine weight (C57BL/6J mice [3]; [10]): 0.26 ± 0.03 g | Small intestine length (C57BL/6J mice [3]; [10]): 22.9 ± 1.6 cm | Small intestine weight (C57BL/6J mice [3]; [10]): 1.3 ± 0.2 g | effect of single treatment on gut weight and length (C57BL/6J mice [3]; PoC study 2, Tables 5, 6, 8, 9): increases in gut wet weight (Table 5), small intestine weight (Table 6) and small intestine length (Table 8) | Gut wet weight (C57BL/6J mice [4]): 3.0 ± 0.3 g | Oral glucose tolerance test AUC, 0-120 min (C57BL/6J mice [5]): 890 ± 182 mmol·min/L

GLP-1R, EC50 (human GLP-1 receptor [6]): 0.004 nM | GLP-2R, EC50 (human GLP-2 receptor [7]): > 100 nM | GLP-1R, EC50 (human GLP-1 receptor [8]): 0.026 nM | GLP-2R, EC50 (human GLP-2 receptor [9]): > 1000 nM
Molecule: HAEGTFTSDVSSYLEGQAAKEFIAWLVKG (ligand, ends and bridges not checked) [native human GLP-1]
